Reference: patent US10093660B2, “Sulfoximine substituted quinazolines for pharmaceutical compositions” (EVOTEC INTERNATIONAL GMBH, priority 2013, dated 2018)
pIC50: −log10 of the molar value.

Experiments:
[1] = biological target: MNK1a (Homo sapiens (Human), UniProt Q9BUB5); test: MNK1 in vitro kinase assay (Assay 3), Z'-LYTE; type: biochemical; conditions: for inhibition at 1 µM: compound concentration of 1 μM, read-out: MNK1 % INH
Excerpt: C. MNK1 In Vitro Kinase Assay (Assay 3)
MNK1 Data can be obtained from the MNK1 Z′-LYTE® assay. The MNK1 Z′-LYTE® screening protocol and assay conditions are also described on www.invitrogen.com.
The assay is described as follows:
The Z′-LYTE® biochemical assay employs a fluorescence-based, coupled-enzyme format and is based on the differential sensitivity of phosphorylated and non-phosphorylated peptides to proteolytic cleavage. The peptide substrate is labeled with two fluorophores—one at each end—that make up a FRET pair.
In the primary reaction, the kinase transfers the gamma-phosphate of ATP to a single tyrosine, serine or threonine residue in a synthetic FRET-peptide. In the secondary reaction, a site-specific protease recognizes and cleaves non-phosphorylated FRET-peptides. Phosphorylation of FRET-peptides suppresses cleavage by the Development Reagent. Cleavage disrupts FRET between the donor (i.e., coumarin) and acceptor (i.e., fluorescein) fluorophores on the FRET-peptide, whereas uncleaved, phosphorylated FRET-peptides maintain FRET. A ratiometric method, which calculates the ratio (the Emission Ratio) of donor emission to acceptor emission after excitation of the donor fluorophore at 400 nm, is used to quantitate reaction progress, as shown in the equation below.
The 2×MKNK1 (MNK1) mixture is prepared in 50 mM HEPES pH 7.5, 0.01% BRIJ-35, 10 mM MgCl2, 4 mM MnCl2, 1 mM EGTA, 2 mM DTT.
The Test Compounds are screened in 1% DMSO (final) in the well.
All Peptide/Kinase Mixtures are diluted to a 2× working concentration in the MNK1 Kinase Buffer.
All ATP Solutions are diluted to a 4× working concentration in Kinase Buffer (50 mM HEPES pH 7.5, 0.01% BRIJ-35, 10 mM MgCl2, 1 mM EGTA).
Development Reagent Solution:
The Development Reagent is diluted in Development Buffer
1. 2.5 μL—4× Test Compound
2. 5 μL—2× Peptide/Kinase Mixture
5. 60-minute Kinase Reaction incubation at room temperature
6. 5 μL—Development Reagent Solution
8. 60-minute Development Reaction incubation at room temperature
9. Read on fluorescence plate reader and analyze the data
Control C0%=Average Coumarin emission signal of the 0% Phos. Control F100%=Average Fluorescein emission signal of the 100% Phos. Control F0%=Average Fluorescein emission signal of the 0% Phos. Control Graphing Software
SelectScreen® Kinase Profiling Service uses XLfit from IDBS. […] The activity of MNK proteins can be assayed also by other in vitro kinase assay formats. […] In general, MNK kinase assays can be performed such that a MNK substrate such as a protein or a peptide, which may or may not include modifications as further described below, or others are phosphorylated by MNK proteins having enzymatic activity in vitro. The activity of a candidate agent can then be determined via its ability to decrease the enzymatic activity of the MNK protein. The kinase activity may be detected by change of the chemical, physical or immunological properties of the substrate due to phosphorylation.

[2] = biological target: MNK2a (Homo sapiens (Human), UniProt Q9HBH9); test: MNK2a in vitro kinase assay (Assay 2), ADP-Glo; type: biochemical; conditions: assay 2; read-out: MNK2 IC50
Chain of MNK2a (Q9HBH9 whole entry): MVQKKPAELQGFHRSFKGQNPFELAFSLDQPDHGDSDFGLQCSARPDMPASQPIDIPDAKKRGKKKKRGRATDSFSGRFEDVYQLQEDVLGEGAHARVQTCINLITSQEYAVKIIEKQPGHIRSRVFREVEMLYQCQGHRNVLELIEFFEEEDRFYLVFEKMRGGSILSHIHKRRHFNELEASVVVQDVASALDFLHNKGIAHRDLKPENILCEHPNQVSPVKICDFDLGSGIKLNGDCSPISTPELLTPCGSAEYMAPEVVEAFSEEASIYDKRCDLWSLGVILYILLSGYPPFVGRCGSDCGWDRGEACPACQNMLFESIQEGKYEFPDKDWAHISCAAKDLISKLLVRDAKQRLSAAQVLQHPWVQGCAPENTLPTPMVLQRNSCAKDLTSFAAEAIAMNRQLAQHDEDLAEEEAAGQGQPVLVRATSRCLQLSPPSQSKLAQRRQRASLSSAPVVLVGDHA
Excerpt: B. MNK2a In Vitro Kinase Assay (Assay 2)

Chain of MNK1a (Q9BUB5 other isoform, or with tags, fused parts or gaps): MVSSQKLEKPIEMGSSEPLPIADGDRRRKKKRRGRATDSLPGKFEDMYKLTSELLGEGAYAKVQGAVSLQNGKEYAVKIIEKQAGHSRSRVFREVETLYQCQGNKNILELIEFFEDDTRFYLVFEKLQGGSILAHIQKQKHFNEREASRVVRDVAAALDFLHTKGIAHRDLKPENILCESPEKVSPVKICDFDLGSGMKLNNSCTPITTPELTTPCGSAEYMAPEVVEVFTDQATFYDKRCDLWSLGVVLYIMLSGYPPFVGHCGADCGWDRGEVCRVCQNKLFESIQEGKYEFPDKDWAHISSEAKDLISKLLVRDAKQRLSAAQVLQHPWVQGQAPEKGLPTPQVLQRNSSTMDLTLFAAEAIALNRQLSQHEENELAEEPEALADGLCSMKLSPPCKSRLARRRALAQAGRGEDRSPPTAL

Row | pIC50 [1] | pIC50 [2] | inhibition at 1 µM [1] | Structure (SMILES)
1 | 7.39 | 8.52 | – | Cc1cc(N=S(C)(C)=O)cc2ncnc(Nc3ccc(F)cc3O[C@H]3COC[C@H]3OCC(F)F)c12 (racemic) [Example 10.3]
2 | – | 8.52 | 104% | Cc1cc(N=S2(=O)CCCC2)cc2ncnc(Nc3ccc(F)cc3O[C@H]3COC[C@H]3OCC(F)F)c12 (racemic) [Example 10.4]
3 | – | 8.22 | 96% | CO[C@@H]1C=C[C@@H](Oc2cc(F)ccc2Nc2ncnc3cc(N=S(C)(C)=O)cc(C)c23)CO1 (racemic) [Example 13.1]
4 | – | 7.89 | 69% | CO[C@@H]1COC[C@H]1Oc1cc(F)ccc1Nc1ncnc2cc(N=S(C)(C)=O)cc(C)c12 (racemic) [Example 13.2]
5 | – | 8.52 | 97% | O=S1(=Nc2cc(Cl)c3c(Nc4ccc(F)cc4O[C@@H]4COC[C@@H]4O)ncnc3c2)CCC1 (single isomer, unassigned) [Example 1.34]
6 | 7.60 | 9.00 | – | O=S1(=Nc2cc(Cl)c3c(Nc4ccc(F)cc4O[C@H]4COC[C@H]4O)ncnc3c2)CCC1 (single isomer, unassigned) [Example 1.35]
7 | – | 9.00 | 97% | CO[C@H]1COC[C@H]1Oc1ncccc1Nc1ncnc2cc(N=S3(=O)CCCC3)cc(C)c12 (single isomer, unassigned) [Example 14.1]
8 | – | 8.00 | 86% | CO[C@@H]1COC[C@@H]1Oc1ncccc1Nc1ncnc2cc(N=S3(=O)CCCC3)cc(C)c12 (single isomer, unassigned) [Example 14.2]
9 | – | 8.52 | 99% | Cc1cc(N=S2(=O)CCCC2)cc2ncnc(Nc3ccc(F)cc3O[C@@H]3COC[C@@H]3O)c12 (single isomer, unassigned) [Example 14.5]
10 | – | 8.70 | 101% | Cc1cc(N=S2(=O)CCCC2)cc2ncnc(Nc3ccc(F)cc3O[C@H]3COC[C@H]3O)c12 (single isomer, unassigned) [Example 14.6]
11 | – | 8.52 | 100% | O=S1(=Nc2cc(Cl)c3c(Nc4ccc(F)cc4O[C@@H]4COC[C@@H]4O)ncnc3c2)CCCC1 (single isomer, unassigned) [Example 14.9]
12 | – | 8.70 | 101% | O=S1(=Nc2cc(Cl)c3c(Nc4ccc(F)cc4O[C@H]4COC[C@H]4O)ncnc3c2)CCCC1 (single isomer, unassigned) [Example 14.10]
13 | – | 8.40 | 96% | CC[S@](C)(=O)=Nc1cc(C)c2c(Nc3ccc(F)cc3O[C@H]3COC[C@@H]3O)ncnc2c1 (single isomer, unassigned) [Example 14.11]
14 | – | 7.82 | 86% | CC[S@@](C)(=O)=Nc1cc(C)c2c(Nc3ccc(F)cc3O[C@H]3COC[C@@H]3O)ncnc2c1 (single isomer, unassigned) [Example 14.12]
15 | 6.98 | 8.05 | – | Cc1cc(N=S2(=O)CCCC2)cc2ncnc(Nc3ccc(F)cc3O[C@H]3COC[C@H]3C#N)c12 [Example 1.1]
16 | 6.42 | 7.72 | – | Cc1cc(N=S(C)(C)=O)cc2ncnc(Nc3ccc(F)cc3O[C@H]3COC[C@H]3C#N)c12 [Example 1.2]
17 | 7.74 | 8.70 | – | O=S1(=Nc2cc(Cl)c3c(Nc4ccc(F)cc4O[C@H]4COC[C@@H]4O)ncnc3c2)CCC1 [Example 1.7]
18 | 7.55 | 8.70 | 98% | O=S1(=Nc2cc(Cl)c3c(Nc4ccc(F)cc4O[C@H]4COC[C@@H]4O)ncnc3c2)CCCC1 [Example 1.9]
19 | – | 7.49 | 64% | CS(C)(=O)=Nc1cc(OC(F)F)c2c(Nc3ccc(F)cc3O[C@H]3COC[C@@H]3O)ncnc2c1 [Example 1.11]
20 | – | 8.40 | 88% | CS(C)(=O)=Nc1cc(C(F)(F)F)c2c(Nc3ccc(F)cc3O[C@H]3COC[C@@H]3O)ncnc2c1 [Example 1.12]

Row | pIC50 [1] | pIC50 [2] | inhibition at 1 µM [1] | Structure (SMILES)
21 | – | 8.40 | 100% | O=S1(=Nc2cc(Cl)c3c(Nc4cccnc4O[C@H]4COC[C@@H]4O)ncnc3c2)CCC1 [Example 1.13]
22 | – | 8.30 | 96% | CS(C)(=O)=Nc1cc(Cl)c2c(Nc3cccnc3O[C@H]3COC[C@@H]3O)ncnc2c1 [Example 1.14]
23 | 7.47 | 8.52 | 103% | O=S1(=Nc2cc(Cl)c3c(Nc4cccnc4O[C@H]4COC[C@@H]4O)ncnc3c2)CCCC1 [Example 1.15]
24 | – | 8.70 | 96% | O=S1(=Nc2cc(Cl)c3c(Nc4ccc(Cl)nc4O[C@H]4COC[C@@H]4O)ncnc3c2)CCC1 [Example 1.16]
25 | – | 8.70 | 103% | O=S1(=Nc2cc(Cl)c3c(Nc4ccc(Cl)nc4O[C@H]4COC[C@@H]4O)ncnc3c2)CCCC1 [Example 1.17]
26 | – | 8.70 | 97% | CS(C)(=O)=Nc1cc(Br)c2c(Nc3ccc(F)cc3O[C@H]3COC[C@@H]3O)ncnc2c1 [Example 1.18]
27 | – | 8.40 | 99% | CS(C)(=O)=Nc1cc(Cl)c2c(Nc3ccc(Cl)nc3O[C@H]3COC[C@@H]3O)ncnc2c1 [Example 1.19]
28 | – | 8.70 | 97% | O=S1(=Nc2cc(F)c3c(Nc4ccc(Cl)nc4O[C@H]4COC[C@@H]4O)ncnc3c2)CCCC1 [Example 1.20]
29 | – | 8.15 | 93% | CS(C)(=O)=Nc1cc(F)c2c(Nc3ccc(Cl)nc3O[C@H]3COC[C@@H]3O)ncnc2c1 [Example 1.21]
30 | – | 9.00 | 92% | O=S1(=Nc2cc(Cl)c3c(Nc4ccc(F)cc4O[C@@H]4COC[C@H]4O)ncnc3c2)CCC1 [Example 1.22]
31 | – | 8.30 | 99% | Cc1cc(N=S(C)(C)=O)cc2ncnc(Nc3ccc(Cl)cc3O[C@H]3COC[C@@H]3O)c12 [Example 1.23]
32 | – | 8.52 | 91% | O=S1(=Nc2cc(F)c3c(Nc4ccc(Cl)nc4O[C@H]4COC[C@@H]4O)ncnc3c2)CCC1 [Example 1.24]
33 | – | 8.70 | 97% | O=S1(=Nc2cc(Cl)c3c(Nc4ccc(F)cc4O[C@@H]4COC[C@H]4O)ncnc3c2)CCCC1 [Example 1.25]
34 | – | 8.52 | 99% | CS(C)(=O)=Nc1cc(Cl)c2c(Nc3ccc(F)cc3O[C@@H]3COC[C@H]3O)ncnc2c1 [Example 1.26]
35 | 7.48 | 8.52 | – | Cc1cc(N=S2(=O)CCCC2)cc2ncnc(Nc3ccc(Cl)cc3O[C@H]3COC[C@@H]3O)c12 [Example 1.27]
36 | – | 8.40 | 96% | O=S1(=Nc2cc(C(F)(F)F)c3c(Nc4ccc(F)cc4O[C@H]4COC[C@@H]4O)ncnc3c2)CCCC1 [Example 1.28]
37 | – | 8.70 | 100% | Cc1cc(N=S2(=O)CCC2)cc2ncnc(Nc3ccc(Cl)cc3O[C@H]3COC[C@@H]3O)c12 [Example 1.29]
38 | – | 8.52 | 93% | Cc1cc(N=S2(=O)CCC2)cc2ncnc(Nc3ccc(Cl)cc3O[C@@H]3COC[C@H]3O)c12 [Example 1.30]
39 | – | 8.22 | 91% | Cc1cc(N=S(C)(C)=O)cc2ncnc(Nc3ccc(Cl)cc3O[C@@H]3COC[C@H]3O)c12 [Example 1.31]
40 | – | 8.40 | 94% | Cc1cc(N=S2(=O)CCCC2)cc2ncnc(Nc3ccc(Cl)cc3O[C@@H]3COC[C@H]3O)c12 [Example 1.32]
